{
  "source": "patent US7811605B2",
  "about": "“Method of formation of shape-retentive aggregates of gel particles and their uses” (ULURU Inc., priority 2002, dated 2010)",
  "test": "Entrapment and release of bromocresol green from particle aggregates in PBS, UV-Visible absorption",
  "format": "physicochemical",
  "conditions": "1 mg dye in 2 mL Tween 80 stabilized pHEMA particles, 36 mg/mL, injected into PBS; discrete particles and 50:50 mixtures of two sizes",
  "protocol": "Injection of a dispersion of particles with a small molecule dissolved in the suspension medium forms an aggregate that traps some of the small molecule. In a typical experiment, 1 mg of bromocresol green dye was dissolved into 2 mL of a suspension of Tween 80 stabilized pHEMA particles (725 nm in diameter) with a hydrated polymer mass of 36 mg/mL. The dispersed particles and dye were injected into a solution of phosphate buffered saline. After 10 minutes of aggregation, the solution was shaken at 10 cycles per second to insure adequate mixing. 2 mL samples of supernatant were taken and characterized by UV-Visible absorption spectroscopy. […] In both cases, most of the small molecule is released within the first 3-5 hours, however, the burst effect is smaller in the mixed aggregate system.",
  "data": [
    {"smiles": "Cc1c(C2(c3cc(Br)c(O)c(Br)c3C)OS(=O)(=O)c3ccccc32)cc(Br)c(O)c1Br", "note": "[bromocresol green]", "values": [
      {"measurement": "time within which most of the small molecule is released", "value": "3 to 5", "unit": "h"}
    ]}
  ]
}
